What was measured:
A3 cells = test: A3 cell numbers and viability; type: cell-based, human
Method: Figure 4. Anticancer properties overlap between OGG1 loss and OGG1 inhibitors. (A) Viability of T-cell acute […] leukemia cell lines treated for 5 days with the indicated doses TH5487. Data are average ±SD of independent experiments (A3, n = 5; Jurkat, n = 3; MOLT-4, n = 4; CCRF-CEM, n = 3). (B) Relative cell numbers and (C) viability (%) for A3 cells treated for 5 days with 10 μM TH5487. Data are average ±SD of six replicates from three independent experiments. (D) Induction of apoptosis in A3 cells treated for 72 h TH5487 and stained for Annexin V. Data are average ±SD of three independent experiments. (E) A3 cells transfected with shRNA targeting OGG1 were treated with doxycycline for 6 days and stained for Annexin V. Data are average ±SD of two independent experiments. (F) Scheme for recovery experiment in which A3 OGG1-shRNA cells or A3 cells were silenced or inhibited for 6 days with doxycycline (200 nM) or TH5487 (10 μM). […] Data are average ±SD of 2–6 technical replicates representative of two independent experiments (I). Scheme for off-target effect evaluation in which A3 OGG1-shRNA cells were exposed to doxycycline for six days and after that, cells were exposed to TH5487 (10 μM) for 48 h followed by measurements of cell numbers (J) and viability by trypan blue exclusion (K). Data are average ±SD of two technical replicates from four independent experiments. Statistical significance was determined using unpaired, two-sided t-tests (*P < 0.05, **P < 0.01, ***P < 0.001, ****P < 0.0001, ns, non-significant).

[1] = system: A3 shNT cells transcriptome; test: RNA-sequencing and Gene Set Enrichment Analysis; type: cell-based, human; conditions: 10 μM, 24 h vs DMSO
Method: To extract bulk RNA from cells, the pellets were resuspended in 500 μl of TRI Reagent. After 5 min, 100 μl of chloroform was added and the tubes were shaken by hand for one minute. After 15 min incubation, the samples were centrifuged at 12 000 × g for 15 min at 4°C. 300 μl of the aqueous phase were then mixed thoroughly with 300 μl of Isopropanol, 30 μl of 3M Sodium Acetate and 1 μl of Pellet Paint (Merck 69049) and incubated over night at −20°C. The following day, the samples were centrifuged at 20 000 × g g for 30 min and the pellets washed twice with 600 μl of 70% ethanol. After drying, the pellets were resuspended in 15 μl of Elution Buffer and the concentration of RNA was measured using the Qubit RNA High Sensitivity Assay (Thermo Fischer Q32852) according to the manufacturer's instructions.
After diluting the samples, 2 ng of RNA were used as input for the Smart-seq2 RNA-sequencing protocol ([41]) and 50 bp single ends were sequenced on an Illumina HiSeq 3000 sequencer. Reads were mapped to the ENSEMBL human transcriptome GRCh37 using Tophat 2.1.1 to generate the read count matrix.
Differential expression analysis was performed with DESeq2 (v. 1.26.0) ([42]). […] For Gene Set Enrichment Analysis only genes with a mean expression >5 normalized counts as determined by DESeq2 were taken into account. […]
Figure 6. […] Only genes with a mean normalized count >5 were analyzed. […]

A3 OGG1-shRNA cells = test: Off-target evaluation in OGG1 knockdown A3 cells; type: cell-based, human
Method: Figure 4. Anticancer properties overlap between OGG1 loss and OGG1 inhibitors. (A) Viability of T-cell acute […] leukemia cell lines treated for 5 days with the indicated doses TH5487. Data are average ±SD of independent experiments (A3, n = 5; Jurkat, n = 3; MOLT-4, n = 4; CCRF-CEM, n = 3). (B) Relative cell numbers and (C) viability (%) for A3 cells treated for 5 days with 10 μM TH5487. Data are average ±SD of six replicates from three independent experiments. (D) Induction of apoptosis in A3 cells treated for 72 h TH5487 and stained for Annexin V. Data are average ±SD of three independent experiments. (E) A3 cells transfected with shRNA targeting OGG1 were treated with doxycycline for 6 days and stained for Annexin V. Data are average ±SD of two independent experiments. (F) Scheme for recovery experiment in which A3 OGG1-shRNA cells or A3 cells were silenced or inhibited for 6 days with doxycycline (200 nM) or TH5487 (10 μM). […] Statistical significance was determined using unpaired, two-sided t-tests (*P < 0.05, **P < 0.01, ***P < 0.001, ****P < 0.0001, ns, non-significant). […]
Statistical significance was determined using unpaired, two -sided T-tests (ns, non-significant, *, P<0.05, **, P<0.01, ***, P<0.001 and ****, P<0.0001) . […] D. Comparative bar graph with quantification from two independent Western blots. […]

[2] = parameters: method as in PMID 30442810; conditions: cited from earlier work

O=C(Nc1ccc(I)cc1)N1CCC(n2c(=O)[nH]c3c(Br)cccc32)CC1 [TH5487]
Recovery of proliferation after release into fresh medium (A3 cells; A3 cells exposed for 6 days to 10 μM): able to divide normally
Cell viability (A3 cells; A3 cells, 10 μM, after 72 h): mild decrease in cell viability
Proliferation (relative cell numbers) (A3 cells; A3 cells, 10 μM, up to 72 h): slower proliferation
'DNA replication' gene signature (GSEA) [1]: one of the most downregulated gene signatures
Additional toxic effect in combination with doxycycline (A3 OGG1-shRNA cells; A3 sh2, 6 days): additional toxic effect
Additional toxic effect in OGG1 knockdown cells (A3 OGG1-shRNA cells; doxycycline 5 days, then additional 48 h with 10 μM): no significant additional toxic effect
Stability in mouse serum [2]: stable
